Source: ChEMBL document CHEMBL5465560, “Selectivity Literature for EUbOPEN Chemogenomic Library” (2024)

Columns and labels:
[1] = target: Proto-oncogene tyrosine-protein kinase ROS (Homo sapiens) (UniProt P08922); experiment: Selectivity interaction (KinomeScan (DiscoverX)) EUB0001049a ROS1; conditions: at 1 µM
[2] = target: Ribosomal protein S6 kinase beta-1 (Homo sapiens, UniProt P23443); experiment: Selectivity interaction (Millipore kinase profiler) EUB0000124b RPS6KB1; conditions: at 10 µM
Sequence of Ribosomal protein S6 kinase beta-1 (P23443 whole entry, looked up): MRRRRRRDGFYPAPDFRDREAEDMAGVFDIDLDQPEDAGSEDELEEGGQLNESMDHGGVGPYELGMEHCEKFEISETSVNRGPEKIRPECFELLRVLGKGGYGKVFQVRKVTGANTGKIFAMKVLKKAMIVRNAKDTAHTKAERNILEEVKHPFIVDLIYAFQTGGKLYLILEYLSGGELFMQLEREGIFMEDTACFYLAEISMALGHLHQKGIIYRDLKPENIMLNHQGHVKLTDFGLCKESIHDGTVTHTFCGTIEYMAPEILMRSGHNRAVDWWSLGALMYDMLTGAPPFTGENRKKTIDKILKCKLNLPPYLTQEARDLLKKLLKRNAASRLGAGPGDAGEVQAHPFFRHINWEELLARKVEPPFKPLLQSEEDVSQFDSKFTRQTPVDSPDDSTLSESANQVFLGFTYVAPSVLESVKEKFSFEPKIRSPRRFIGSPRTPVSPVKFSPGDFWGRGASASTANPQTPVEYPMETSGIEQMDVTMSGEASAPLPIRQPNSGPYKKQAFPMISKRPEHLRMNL

[3] = target: Sodium-dependent noradrenaline transporter (Homo sapiens, UniProt P23975); experiment: Selectivity interaction (Safety Panel 44tm (Eurofins)) EUB0000162b SLC6A2; conditions: at 10 µM
Sequence of Sodium-dependent noradrenaline transporter (P23975 whole entry): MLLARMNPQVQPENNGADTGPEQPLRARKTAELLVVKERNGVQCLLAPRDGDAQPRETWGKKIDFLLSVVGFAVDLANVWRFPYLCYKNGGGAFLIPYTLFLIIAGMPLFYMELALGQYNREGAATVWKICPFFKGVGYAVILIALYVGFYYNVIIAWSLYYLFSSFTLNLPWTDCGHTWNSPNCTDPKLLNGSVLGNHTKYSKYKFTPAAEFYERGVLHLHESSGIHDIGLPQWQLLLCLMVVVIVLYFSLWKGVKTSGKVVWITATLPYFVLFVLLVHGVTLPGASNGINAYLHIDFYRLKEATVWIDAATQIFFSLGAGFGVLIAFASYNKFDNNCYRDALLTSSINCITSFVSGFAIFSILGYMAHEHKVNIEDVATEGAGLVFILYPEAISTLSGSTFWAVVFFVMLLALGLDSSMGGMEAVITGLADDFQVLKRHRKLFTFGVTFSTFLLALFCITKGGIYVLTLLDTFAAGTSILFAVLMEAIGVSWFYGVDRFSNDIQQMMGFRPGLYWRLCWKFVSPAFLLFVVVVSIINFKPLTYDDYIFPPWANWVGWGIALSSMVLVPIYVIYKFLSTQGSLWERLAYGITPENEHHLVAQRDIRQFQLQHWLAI

[4] = target: Microtubule-associated serine/threonine-protein kinase 1 (Homo sapiens) (UniProt Q9Y2H9); experiment: Selectivity interaction (KinomeScan (DiscoverX)) EUB0001079a MAST1; conditions: at 1 µM
[5] = target: Transcription initiation factor TFIID subunit 1-like (Homo sapiens) (UniProt Q8IZX4); experiment: Selectivity interaction (Human bromodomain panel (DSF assay)) EUB0000233b TAF1L
[6] = target: MAP/microtubule affinity-regulating kinase 3 (Homo sapiens) (UniProt P27448); conditions: at 10 µM
[7] = target: T1, Serine/threonine-protein kinase DCLK2 (Homo sapiens) (UniProt Q8N568); experiment: Selectivity interaction (Ambit KINOMEscan and KiNATiv profiling in Jurkat cells) EUB0000090b DCLK2; format: cell-based; conditions: at 1 µM
T1 sequence (whole entry): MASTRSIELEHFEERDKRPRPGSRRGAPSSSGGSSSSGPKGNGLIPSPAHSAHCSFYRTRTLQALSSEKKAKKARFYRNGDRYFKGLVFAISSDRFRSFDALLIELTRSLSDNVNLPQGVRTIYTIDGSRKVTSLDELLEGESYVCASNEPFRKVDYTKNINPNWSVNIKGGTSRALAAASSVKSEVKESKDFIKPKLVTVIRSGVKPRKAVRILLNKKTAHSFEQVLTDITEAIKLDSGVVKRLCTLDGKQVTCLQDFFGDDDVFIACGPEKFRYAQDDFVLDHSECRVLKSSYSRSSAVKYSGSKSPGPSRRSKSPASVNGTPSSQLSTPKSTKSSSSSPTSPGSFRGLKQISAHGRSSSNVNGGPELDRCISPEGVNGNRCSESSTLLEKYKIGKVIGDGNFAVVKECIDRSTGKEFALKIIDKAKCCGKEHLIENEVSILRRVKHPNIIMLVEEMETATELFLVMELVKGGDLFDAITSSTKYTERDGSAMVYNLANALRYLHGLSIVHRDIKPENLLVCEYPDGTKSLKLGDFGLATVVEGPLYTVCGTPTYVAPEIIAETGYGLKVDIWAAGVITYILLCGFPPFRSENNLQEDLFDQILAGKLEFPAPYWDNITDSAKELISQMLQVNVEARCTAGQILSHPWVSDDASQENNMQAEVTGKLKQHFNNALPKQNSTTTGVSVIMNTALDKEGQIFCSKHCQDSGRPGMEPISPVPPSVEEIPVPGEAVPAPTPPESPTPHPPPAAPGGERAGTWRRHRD

[8] = target: Receptor tyrosine-protein kinase erbB-4 (Homo sapiens, UniProt Q15303); experiment: Selectivity interaction (KinomeScan (DiscoverX)) EUB0000618a ERBB4; conditions: at 10 µM
[9] = target: T2, Serine/threonine-protein kinase 17B (Homo sapiens) (UniProt O94768); experiment: Selectivity interaction (KinomeScan (DiscoverX)) EUB0000618a STK17B; conditions: at 10 µM
T2 sequence (whole entry): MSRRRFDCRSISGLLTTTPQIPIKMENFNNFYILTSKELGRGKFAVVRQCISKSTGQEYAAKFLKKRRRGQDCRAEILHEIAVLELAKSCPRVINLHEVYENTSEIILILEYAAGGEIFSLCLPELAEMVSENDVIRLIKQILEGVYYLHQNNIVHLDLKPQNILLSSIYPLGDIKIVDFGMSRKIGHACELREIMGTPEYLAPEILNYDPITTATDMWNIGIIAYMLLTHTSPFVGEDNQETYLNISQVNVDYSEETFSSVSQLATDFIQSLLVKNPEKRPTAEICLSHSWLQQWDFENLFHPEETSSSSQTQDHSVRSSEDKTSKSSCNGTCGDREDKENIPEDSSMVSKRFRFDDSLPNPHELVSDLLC

[10] = target: Serine/threonine-protein kinase PAK 6 (Homo sapiens) (UniProt Q9NQU5); experiment: Selectivity interaction (KinomeScan (DiscoverX)) EUB0001619a PAK6; conditions: at 1 µM
[11] = target: SRSF protein kinase 3 (Homo sapiens) (UniProt Q9UPE1); experiment: Selectivity interaction (Upstate Kinase Profiler service (Millipore)) EUB0000056c SRPK3; conditions: at 1 µM
[12] = target: T3, Testis-specific serine/threonine-protein kinase 1 (Homo sapiens) (UniProt Q9BXA7); experiment: Selectivity interaction (Upstate Kinase Profiler service (Millipore)) EUB0000056c TSSK1A; conditions: at 1 µM
T3 sequence (whole entry): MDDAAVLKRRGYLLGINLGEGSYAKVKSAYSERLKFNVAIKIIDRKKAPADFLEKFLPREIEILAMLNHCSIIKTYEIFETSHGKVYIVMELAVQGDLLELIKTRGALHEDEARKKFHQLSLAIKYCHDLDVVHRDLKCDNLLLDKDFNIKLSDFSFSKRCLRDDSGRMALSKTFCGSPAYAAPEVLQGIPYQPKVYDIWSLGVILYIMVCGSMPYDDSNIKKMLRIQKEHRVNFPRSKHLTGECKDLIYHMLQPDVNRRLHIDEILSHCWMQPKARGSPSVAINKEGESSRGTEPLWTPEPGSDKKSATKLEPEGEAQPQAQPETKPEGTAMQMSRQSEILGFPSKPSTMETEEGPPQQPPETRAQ

[13] = target: Serine/threonine-protein kinase MRCK beta (Homo sapiens) (UniProt Q9Y5S2); experiment: Selectivity interaction (KinomeScan (DiscoverX)) EUB0000695a CDC42BPB; conditions: at 100 nM
[14] = target: Angiopoietin-1 receptor (Homo sapiens) (UniProt Q02763); experiment: (§1) Selectivity interaction (Kinase panel (Z-LYTE Assay)) EUB0001632a TEK; conditions: at 10 µM
Sequence of Angiopoietin-1 receptor (Homo sapiens) (Q02763 whole entry): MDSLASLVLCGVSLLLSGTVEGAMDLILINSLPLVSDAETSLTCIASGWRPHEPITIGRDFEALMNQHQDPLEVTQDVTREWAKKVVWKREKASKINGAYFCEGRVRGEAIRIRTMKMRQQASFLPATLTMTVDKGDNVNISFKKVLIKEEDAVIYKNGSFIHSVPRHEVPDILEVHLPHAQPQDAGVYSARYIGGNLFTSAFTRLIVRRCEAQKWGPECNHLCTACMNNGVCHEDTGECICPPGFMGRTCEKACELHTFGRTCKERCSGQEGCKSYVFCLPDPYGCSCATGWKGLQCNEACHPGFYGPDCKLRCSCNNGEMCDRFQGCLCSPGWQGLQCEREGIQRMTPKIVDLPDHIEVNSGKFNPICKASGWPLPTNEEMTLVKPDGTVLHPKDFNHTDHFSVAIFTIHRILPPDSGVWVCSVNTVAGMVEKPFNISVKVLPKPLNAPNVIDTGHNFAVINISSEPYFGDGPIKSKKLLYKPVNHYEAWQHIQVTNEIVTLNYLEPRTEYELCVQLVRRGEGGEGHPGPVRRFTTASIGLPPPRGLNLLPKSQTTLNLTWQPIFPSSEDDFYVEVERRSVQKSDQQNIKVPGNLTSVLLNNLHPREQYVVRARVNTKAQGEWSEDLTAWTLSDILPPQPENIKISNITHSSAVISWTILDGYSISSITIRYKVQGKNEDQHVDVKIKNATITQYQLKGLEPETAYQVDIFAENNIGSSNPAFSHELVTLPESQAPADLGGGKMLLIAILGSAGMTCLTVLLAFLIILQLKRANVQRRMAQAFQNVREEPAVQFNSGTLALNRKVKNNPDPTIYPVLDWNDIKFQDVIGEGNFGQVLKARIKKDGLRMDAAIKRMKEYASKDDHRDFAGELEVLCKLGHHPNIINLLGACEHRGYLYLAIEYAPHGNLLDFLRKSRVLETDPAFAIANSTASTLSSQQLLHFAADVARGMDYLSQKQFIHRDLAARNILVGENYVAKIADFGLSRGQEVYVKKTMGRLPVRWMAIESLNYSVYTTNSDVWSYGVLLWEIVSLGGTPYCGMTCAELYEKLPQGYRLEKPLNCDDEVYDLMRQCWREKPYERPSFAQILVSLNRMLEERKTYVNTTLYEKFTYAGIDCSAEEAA

[15] = system: Angiopoietin-1 receptor (Homo sapiens), Q02763 [Y897S]; experiment: as §1; conditions: at 10 µM
Sequence of Angiopoietin-1 receptor (Homo sapiens), Q02763 [Y897S] (Q02763 whole entry Y897S): as the sequence (Q02763 whole entry) above, with Y897S counted along it

Sequence of Proto-oncogene tyrosine-protein kinase ROS (Homo sapiens) (P08922 whole entry): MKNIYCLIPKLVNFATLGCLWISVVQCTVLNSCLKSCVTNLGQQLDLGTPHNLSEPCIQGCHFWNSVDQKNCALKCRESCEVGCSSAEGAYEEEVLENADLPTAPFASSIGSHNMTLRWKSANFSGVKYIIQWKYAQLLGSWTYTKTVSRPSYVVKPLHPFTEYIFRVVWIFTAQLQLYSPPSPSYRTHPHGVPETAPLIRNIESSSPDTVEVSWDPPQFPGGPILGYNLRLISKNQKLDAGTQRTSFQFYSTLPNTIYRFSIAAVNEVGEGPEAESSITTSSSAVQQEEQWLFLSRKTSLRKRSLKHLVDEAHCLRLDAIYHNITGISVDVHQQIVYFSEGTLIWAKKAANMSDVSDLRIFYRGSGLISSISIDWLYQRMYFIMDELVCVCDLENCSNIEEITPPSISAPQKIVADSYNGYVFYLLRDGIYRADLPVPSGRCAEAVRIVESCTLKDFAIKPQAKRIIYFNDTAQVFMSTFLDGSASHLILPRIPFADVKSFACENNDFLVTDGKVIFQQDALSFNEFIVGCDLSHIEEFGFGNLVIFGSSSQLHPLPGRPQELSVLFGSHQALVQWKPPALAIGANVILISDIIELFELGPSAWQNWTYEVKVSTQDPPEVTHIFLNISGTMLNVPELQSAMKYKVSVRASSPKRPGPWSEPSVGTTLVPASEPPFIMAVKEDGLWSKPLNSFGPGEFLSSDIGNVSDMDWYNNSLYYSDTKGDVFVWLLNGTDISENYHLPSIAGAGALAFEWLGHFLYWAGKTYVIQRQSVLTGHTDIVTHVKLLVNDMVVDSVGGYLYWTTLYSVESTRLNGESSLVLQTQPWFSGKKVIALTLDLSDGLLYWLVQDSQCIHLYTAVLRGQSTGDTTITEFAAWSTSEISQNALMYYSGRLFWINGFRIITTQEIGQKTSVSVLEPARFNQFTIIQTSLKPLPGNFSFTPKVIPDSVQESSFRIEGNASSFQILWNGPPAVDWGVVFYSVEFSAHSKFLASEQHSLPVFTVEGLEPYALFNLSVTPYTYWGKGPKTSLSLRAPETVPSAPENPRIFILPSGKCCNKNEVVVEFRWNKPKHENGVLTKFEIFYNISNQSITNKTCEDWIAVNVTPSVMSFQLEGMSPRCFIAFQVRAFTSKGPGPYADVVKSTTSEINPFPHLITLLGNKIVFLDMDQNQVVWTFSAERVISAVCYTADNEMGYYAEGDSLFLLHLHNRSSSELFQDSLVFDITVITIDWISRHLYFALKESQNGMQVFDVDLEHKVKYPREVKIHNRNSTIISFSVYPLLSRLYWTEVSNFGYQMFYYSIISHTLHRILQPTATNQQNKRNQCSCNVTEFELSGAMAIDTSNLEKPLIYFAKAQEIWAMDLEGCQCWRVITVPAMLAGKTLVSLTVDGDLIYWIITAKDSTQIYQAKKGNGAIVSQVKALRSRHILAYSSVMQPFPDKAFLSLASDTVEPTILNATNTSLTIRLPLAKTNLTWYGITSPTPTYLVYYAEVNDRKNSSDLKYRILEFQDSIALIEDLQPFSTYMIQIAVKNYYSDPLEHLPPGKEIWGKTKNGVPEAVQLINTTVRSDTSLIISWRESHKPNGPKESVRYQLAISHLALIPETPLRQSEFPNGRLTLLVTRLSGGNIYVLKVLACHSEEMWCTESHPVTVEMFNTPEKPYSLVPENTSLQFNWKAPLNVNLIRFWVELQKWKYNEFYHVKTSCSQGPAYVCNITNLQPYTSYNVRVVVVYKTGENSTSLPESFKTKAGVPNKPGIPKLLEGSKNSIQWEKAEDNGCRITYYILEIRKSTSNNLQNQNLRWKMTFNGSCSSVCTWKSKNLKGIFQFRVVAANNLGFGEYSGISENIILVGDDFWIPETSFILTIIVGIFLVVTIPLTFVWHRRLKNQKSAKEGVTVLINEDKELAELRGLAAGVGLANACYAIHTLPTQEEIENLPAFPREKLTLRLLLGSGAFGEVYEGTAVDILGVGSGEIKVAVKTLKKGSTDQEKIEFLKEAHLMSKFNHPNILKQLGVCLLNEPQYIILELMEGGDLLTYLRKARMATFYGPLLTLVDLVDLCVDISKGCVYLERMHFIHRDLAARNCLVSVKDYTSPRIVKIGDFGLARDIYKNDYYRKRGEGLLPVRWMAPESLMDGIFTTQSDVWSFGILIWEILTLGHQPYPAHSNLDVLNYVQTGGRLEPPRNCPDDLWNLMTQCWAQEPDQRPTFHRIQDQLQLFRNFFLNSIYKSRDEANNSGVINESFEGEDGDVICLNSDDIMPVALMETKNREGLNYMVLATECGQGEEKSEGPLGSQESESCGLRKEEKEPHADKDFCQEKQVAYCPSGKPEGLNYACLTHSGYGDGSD

With `COc1cc(Nc2nc(C)cc(-c3cnn4nc(OC)ccc34)n2)cc(C(F)(F)F)c1` the % of control [1] was 91%.
Molecule `CC(=O)Nc1cccc(-n2c(=O)n(C3CC3)c(=O)c3c(Nc4ccc(I)cc4F)n(C)c(=O)c(C)c32)c1` has a % of control [2] of 104%.
`CN(C)C(=O)Cn1cc(-c2ccc(-c3cncc4ccccc34)cc2)cn1` was tested, and the % of control [3] was 89%.
`Nc1cnc(N2CCc3cc(S(=O)(=O)Nc4c(F)cc(Cl)cc4F)cc(N4CCCC4=O)c32)nc1` [TP-020n] showed a % of control [4] of 97%.
Work on `CN(C)CCCOc1ccc(-c2cc(NCCCn3cccn3)nc(S(C)(=O)=O)n2)cc1` yielded a dTM [5] of under 2 K.
Molecule `CCN(CC)CCCCNc1ncc2cc(-c3cc(OC)cc(OC)c3)c(NC(=O)NC(C)(C)C)nc2n1` has a % of control [6] of 100%.
Molecule `CN(C)C/C=C/C(=O)Nc1ccc(C(=O)N2CCCC(Nc3ncc(Cl)c(-c4c[nH]c5ccccc45)n3)C2)cc1` (stereo not given) has a % of control [7] of 78%.
Work on `O[C@H]1CC[C@H](Nc2ncc3nc(Nc4c(F)cc(F)cc4F)n([C@H]4CCOC4)c3n2)CC1` yielded a % of control [8] of 56% and a % of control [9] of 70%.
Work on `N#Cc1cccc(-c2c[nH]c3ncnc(N4CCOCC4)c23)c1` yielded a % of control [10] of 66%.
Molecule `Cc1ccc(-c2ccc3c(ccc4sc5c(c43)NC[C@@H](C)NC5=O)n2)cn1` has a % of inhibition [11] of 36% and a % of inhibition [12] of 35%.
With `Cc1cc(F)c(C(=O)Nc2cccc(-c3nncn3C(C)C)n2)cc1-n1cnc(C2CC2)c1` the % of control [13] was 100%.
Work on `Cn1cc(-n2cnc3c(NCc4nc5cc(Cl)c(Cl)cc5[nH]4)nc(N4CCOCC4)nc32)cn1` yielded a % of control [14] of -5.98% and a % of control [15] of 0.243%.
